Experimental data as given in patent publication US10761045B2, “Sensor, sensor system, method of manufacturing sensor, and method of measuring concentration of target substance” (PHC Holdings Corporation, priority 2010, dated 2020).
In brackets after ≈: the same amount, converted by molar mass. Where two headings read alike, the source gives them in different places.

How the values were obtained:
[1] = Stability test (exposure test) of sensor at 30° C., 80% humidity; settings: for change in the response current value after the exposure test: 24 hours at 30° C., 80% relative humidity; for Sensor stability % change in response current value between before and after 24 hours exposure at 30° C. and 80% humidity: additive in reagent layer, additive conc. 1.0-5.0 mM
Protocol: Sensors were manufactured in the same manner as described in section [1-5] using the reagent solutions prepared above. The sensors manufactured were exposed to an environment of high temperature and humidity (30° C., 80% relative humidity) for 24 hours. Response current values of the pre- and post-exposed sensors were measured for a series of glucose solutions of known concentrations.
Sensors were manufactured using fresh reagent solutions having the same compositions as described above. The sensors were subjected to an exposure experiment where they were allowed to stand for 24 hours at 30° C. and 80% humidity. Response current values of non-exposed sensors (i.e., sensors stored under the ambient condition (25° C., 5% humidity) for 24 hours) and the exposed sensors were measured for a series of glucose solutions of known concentrations.

[2] = Storage stability of reagent solution (response current of sensors made with stored vs fresh reagent solution); type: physicochemical
Text: A sensor having the configuration illustrated in FIG. 1 was manufactured. The detailed procedure will now be described. First, by sputtering palladium, 8 nm-thick conductive layer 3 was deposited on substrate 2 which was 30 mm in length, 7 mm in width and 0.2 mm in thickness and which contained polyethylene terephthalate as its main component. Thereafter, a 0.1 mm-width non-conductive track was formed by laser ablation, to form electrodes 31 to 33. Electrode 31 was designed to function as a working electrode, electrode 32 as a counter electrode, and electrode 33 as a sensing electrode.
Using a microsyringe, 1.2 μL of each reagent solution was applied to form reagent layer 4 in a shape of 2.2 mm diameter-circular. After formation of reagent layer 4, spacer 5 (0.145 mm thick) having a cut-out with a length of 3.4 mm a width of 1.2 mm and cover 6 were sequentially attached to the substrate having the electrodes formed thereon. In this way a sensor was manufactured that has a capillary having a volume of 0.6 μL. […]
Response current values of each sensor were measured using a series of glucose solutions of known concentrations.
By adding as an additive imidazole, histamine, histidine, 2-aminoimidazole, 4,5-bis(hydroxymethyl)imidazole, 1,2,4-triazole, 3-amino-1,2,4-triazole, 4-amino-1,2,4-triazole, 3,5-diamino-1,2,4-triazole, 2-methylimidazole, or 1,2-dimethylimidazole, reagent solutions were prepared that contain the same composition as reagent solution C except the type and concentration of the additive. The concentrations of the additives are as indicated in Tables below and the accompanying drawings.
Further, sensors were manufactured using the same reagent solutions stored at 25° C. and 5% humidity for 24 hours after preparation. […]

[3] = Redox / oxidation potentials stated in the description; type: physicochemical
[4] = Cyclic voltammetry of mediators, redox potential vs Ag|AgCl; type: physicochemical; settings: reference Ag|AgCl; for Eox (V): potential at peak oxidation current; for Ered (V): potential at peak reduction current; for EO′ (V) [(Ered + Eox)/2]: redox potential, average of Ered and Eox
Protocol: Redox potential (EO′) was calculated in the following procedure. Specifically, cyclic voltammetry using Ag|AgCl as the reference electrode was performed under the same conditions as those in Examples to be described later. Redox potential (EO′) was found as an average of the potential value at the peak oxidation current (Eox) and the potential value at the peak reduction current (Ered), i.e., [(Ered+Eox)/2].
Cyclic voltammetry was performed for the resultant reagent solution using the aforementioned sensor electrode. As a reference electrode, a silver/silver chloride (saturated potassium chloride) electrode (hereinafter “Ag|AgCl”) was used. The reference electrode was led to vent hole 61 of the sensor electrode via a salt bridge. A potentiostat was used for measurement. The electrodes and the potentiostat used were those commonly used in electrochemistry. These instruments can be purchased from BAS Inc., for example.
In cyclic voltammetry, a potential applied to the working electrode was swept linearly with respect to time. The sweeping rate was set to 0.1 V/second. First, a first potential was applied to the working electrode, and the electrode potential was swept toward negative potentials from the first potential to a second potential. The electrode potential was then swept back from the second potential to the first potential toward positive potentials. The first and second potentials were 0.2 V and […], respectively, […]

[5] = Solubility in water of mediators; type: physicochemical; settings: for solubility: water
Text: Solubilities in water of Compounds A, B, H′, I, I′ and J and disodium 9,10-phenanthrenequinone 2,7-disulfonate are given in Table 1.

[6] = cited from earlier work; for redox potential: coenzymes and phenanthroline quinone, background values

c1nc[nH]n1 [1,2,4-Triazole]
change in the response current value after the exposure test [1]: relatively small change in the response current value | Sensor stability % change in response current value between before and after 24 hours exposure at 30° C. and 80% humidity [1]: −14% | Reagent solution stability % change in response current value between before and after 24 hours storage at 25° C. [2]: −12%

Cc1nccn1C [1,2-Dimethylimidazole]
Sensor stability % change in response current value between before and after 24 hours exposure at 30° C. and 80% humidity [1]: −44% | Reagent solution stability % change in response current value between before and after 24 hours storage at 25° C. [2]: 2%

O=C1C=C(S(=O)(=O)O)c2ccccc2C1=O [1,2-naphthoquinone-4-sulfonic acid]
redox potential of exemplary electron acceptors [3]: −16 mV

Nc1ncc[nH]1 [2-Aminoimidazole]
change in the response current value after the exposure test [1]: relatively small change in the response current value | Sensor stability % change in response current value between before and after 24 hours exposure at 30° C. and 80% humidity [1]: −7% | Reagent solution stability % change in response current value between before and after 24 hours storage at 25° C. [2]: −6%

Cc1ncc[nH]1 [2-Methylimidazle, 2-methylimidazole]
Sensor stability % change in response current value between before and after 24 hours exposure at 30° C. and 80% humidity [1]: −44% | Reagent solution stability % change in response current value between before and after 24 hours storage at 25° C. [2]: 1%

Nc1n[nH]c(N)n1 [3,5-Diamino-1,2,4-triazole]
change in the response current value after the exposure test [1]: relatively small change in the response current value | Sensor stability % change in response current value between before and after 24 hours exposure at 30° C. and 80% humidity [1]: −2% | Reagent solution stability % change in response current value between before and after 24 hours storage at 25° C. ([2]; additive in reagent solution C composition (PQSA, FAD-GDH), additive conc. 1.0-5.0 mM): −1%

Nc1nc[nH]n1 [3-Amino-1,2,4-triazole]
change in the response current value after the exposure test [1]: relatively small change in the response current value | Sensor stability % change in response current value between before and after 24 hours exposure at 30° C. and 80% humidity [1]: −4% | Reagent solution stability % change in response current value between before and after 24 hours storage at 25° C. [2]: 0%

OCc1nc[nH]c1CO [4,5-Bis(hydroxymethyl) imidazole, 4,5-bis(hydroxymethyl)imidazole]
change in the response current value after the exposure test [1]: relatively small change in the response current value | Sensor stability % change in response current value between before and after 24 hours exposure at 30° C. and 80% humidity [1]: −11% | Reagent solution stability % change in response current value between before and after 24 hours storage at 25° C. [2]: −14%

Nn1cnnc1 [4-Amino-1,2,4-triazole]
change in the response current value after the exposure test [1]: relatively small change in the response current value | Sensor stability % change in response current value between before and after 24 hours exposure at 30° C. and 80% humidity [1]: −4% | Reagent solution stability % change in response current value between before and after 24 hours storage at 25° C. [2]: −6%

N=C(N)NCCC[C@H](N)C(=O)O [Arginine, reference compound]
Sensor stability % change in response current value between before and after 24 hours exposure at 30° C. and 80% humidity [1]: −12% | Reagent solution stability % change in response current value between before and after 24 hours storage at 25° C. [2]: −25%

NCCCCN [Butanediamine, reference compound]
Sensor stability % change in response current value between before and after 24 hours exposure at 30° C. and 80% humidity [1]: −51%

O=C1C(=O)c2cc([N+](=O)[O-])ccc2-c2ccccc21 [Compound A]
Eox (V) [4]: −0.10 V | Ered (V) [4]: −0.13 V | EO′ (V) [(Ered + Eox)/2] [4]: −0.12 V | solubility ([5]; read-out: Solubility in water): 1 mM (≈ 253 µg/mL)

Nc1ccc2c(c1)C(=O)C(=O)c1ccccc1-2 [Compound B]
Eox (V) [4]: −0.19 V | Ered (V) [4]: −0.23 V | EO′ (V) [(Ered + Eox)/2] [4]: −0.21 V | solubility ([5]; read-out: Solubility in water): 1 mM (≈ 223 µg/mL)

O=C1C(=O)c2cc(-c3ccc(S(=O)(=O)[O-])cc3)ccc2-c2ccccc21.[Na+] [Compound H′]
Eox (V) [4]: −0.14 V | Ered (V) [4]: −0.21 V | EO′ (V) [(Ered + Eox)/2] [4]: −0.18 V | solubility ([5]; read-out: Solubility in water): 20 mM

O=C([O-])c1ccc(-c2ccc3c(c2)C(=O)C(=O)c2ccccc2-3)cc1.[Na+] [Compound I]
Eox (V) [4]: −0.14 V | Ered (V) [4]: −0.22 V | EO′ (V) [(Ered + Eox)/2] [4]: −0.18 V | solubility ([5]; read-out: Solubility in water): 5 mM

O=C(NCCS(=O)(=O)[O-])c1ccc(-c2ccc3c(c2)C(=O)C(=O)c2ccccc2-3)cc1.[Na+] [Compound I′]
Eox (V) [4]: −0.14 V | Ered (V) [4]: −0.22 V | EO′ (V) [(Ered + Eox)/2] [4]: −0.18 V | solubility ([5]; read-out: Solubility in water): 20 mM

O=C([O-])c1cc(C(=O)[O-])cc(-c2ccc3c(c2)C(=O)C(=O)c2ccccc2-3)c1.[Na+].[Na+] [Compound J]
Eox (V) [4]: −0.15 V | Ered (V) [4]: −0.23 V | EO′ (V) [(Ered + Eox)/2] [4]: −0.19 V | solubility ([5]; read-out: Solubility in water): 50 mM

O=C1C(=O)c2cc(S(=O)(=O)[O-])ccc2-c2ccc(S(=O)(=O)[O-])cc21.[Na+].[Na+] [Disodium 9,10-phenanthrenequinone-2,7-disulfonate]
Eox (V) [4]: −0.06 V | Ered (V) [4]: −0.18 V | EO′ (V) [(Ered + Eox)/2] [4]: −0.12 V | Solubility in water [5]: ≥200 mM

NCCN [Ethylenediamine, reference compound]
Sensor stability % change in response current value between before and after 24 hours exposure at 30° C. and 80% humidity [1]: −45% | Reagent solution stability % change in response current value between before and after 24 hours storage at 25° C. [2]: −3%

Cc1cc2nc3c(=O)[nH]c(=O)nc-3n(C[C@H](O)[C@H](O)[C@H](O)COP(=O)(O)OP(=O)(O)OC[C@H]3O[C@@H](n4cnc5c(N)ncnc54)[C@H](O)[C@@H]3O)c2cc1C [FAD, flavin adenine dinucleotide]
redox potential [6]: approximately −300 mV

NCCc1c[nH]cn1 [Histamine]
change in the response current value after the exposure test [1]: relatively small change in the response current value | Sensor stability % change in response current value between before and after 24 hours exposure at 30° C. and 80% humidity [1]: −3% | Reagent solution stability % change in response current value between before and after 24 hours storage at 25° C. [2]: −2%

N[C@@H](Cc1c[nH]cn1)C(=O)O [Histidine]
change in the response current value after the exposure test [1]: relatively small change in the response current value | Sensor stability % change in response current value between before and after 24 hours exposure at 30° C. and 80% humidity [1]: −12% | Reagent solution stability % change in response current value between before and after 24 hours storage at 25° C. [2]: −7%

NCCCC[C@H](N)C(=O)O [Lysine, reference compound]
Sensor stability % change in response current value between before and after 24 hours exposure at 30° C. and 80% humidity [1]: −31% | Reagent solution stability % change in response current value between before and after 24 hours storage at 25° C. [2]: −20%

O=C(O)c1cc(C(=O)O)c2c(n1)C(=O)C(=O)c1cc(C(=O)O)[nH]c1-2 [PQQ, pyrroloquinoline quinone]
redox potential [6]: approximately −200 mV

O=C1C(=O)c2cc(S(=O)(=O)[O-])ccc2-c2ccccc21.[Na+] [Sodium 9,10-phenanthrenequinone-2-sulfonate]
Eox (V) [4]: −0.12 V | Ered (V) [4]: −0.18 V | EO′ (V) [(Ered + Eox)/2] [4]: −0.15 V | solubility [5]: 80 mM

O=C1O[C@H]([C@@H](O)CO)C(O)=C1O [ascorbic acid]
oxidation potential ([6]; interfering substance, background value): approximately −140 mV

O=C1C(=O)c2cccnc2-c2ncccc21 [phenanthroline quinone]
redox potential [6]: approximately 0 mV

Ethyleneamine [reference compound]
Sensor stability % change in response current value between before and after 24 hours exposure at 30° C. and 80% humidity [1]: −77%
